According to patent US20040097566A1, “2-Substituted thiazolidinone and oxazolidinone derivatives for the inhibition of phosphatases and the treatment of cancer” (priority 2001, published 2004):

| Structure (SMILES) | melting point [°C] |
| --- | --- |
| Cc1cc(O)c(C23CC4CC(CC(C4)C2)C3)cc1-c1cccc(/C=C2\SC(N3CCOCC3)=NC2=O)c1 [Compound 33, 5-[3-(3-Adamantan-1-yl-4-hydroxy-6-methyl-phenyl)benzylidene]-2-morpholin-4-yl-thiazol-4-one] | 327 to 329 |
| O=C1N=C(N2CCOCC2)S/C1=C\c1cc(-c2ccc(O)c(C34CC5CC(CC(C5)C3)C4)c2)c(O)cc1O [Compound 104, 5-[3-(3-Adamantan-1-yl-4-hydroxy-phenyl)-4,6-dihydroxy-benzylidene]-2-morpholin-4yl-thiazol-4-one] | 306 to 310 |
| O=C1N=C(N2CCCCC2)S/C1=C\c1cccc(-c2ccc(O)c(C(=O)c3ccccc3)c2)c1 [Compound 26, 5-[3-(3-Benzoyl-4-hydroxy-phenyl)benzylidene]-2-piperidin-1-yl-thiazol-4-one] | 135 to 138 |
| CC1(C)COc2ccc(-c3cncc(/C=C4\SC(N5CCOCC5)=NC4=O)c3)cc21 [Compound 82, 5-[5-(3,3-Dimethyl-2,3-dihydro-benzofuran-5-yl)-pyridin-3-ylmethylene]-2-morpholin-4-yl-thiazol-4-one] | 230 to 233 |
| O=C1N=C(N2CCOCC2)S/C1=C\c1ccc(-c2ccnc(C34CC5CC(CC(C5)C3)C4)n2)cc1 [Compound 41, 5-[4-(2-Adamantan-1-yl-pyrimidin-4-yl)-benzylidene]-2-morpholin-4-yl-thiazol-4-one] | 283 to 285 |
| CCN(CC)C1=NC(=O)/C(=C/c2cccc(-c3ccc(O)c(C45CC6CC(CC(C6)C4)C5)c3)c2)S1 [Compound 10, 5-[3-(3-Adamantan-1-yl-4-hydroxy-phenyl)benzylidene]-2-diethylamino-thiazol-4-one] | 275 to 277 |
| O=C1N=C(N2CCOCC2)S/C1=C\c1cccc(-c2ccc(O)c(F)c2)c1 [Compound 64, 5-[3-(3-Fluoro-4-hydroxy-phenyl)-benzylidene]-2-morpholin-4-yl-thiazol-4-one] | 233 to 235 |
| O=C1N=C(NCCN2CCOCC2)S/C1=C\c1cccc(-c2cc(F)c(O)c(C34CC5CC(CC(C5)C3)C4)c2)c1 [Compound 24, 5-[3-(3-Adamantan-1-yl-4-hydroxy-5-fluoro-phenyl)benzylidene]-2-(2-morpholino-1-yl-ethylamino)-thiazol-4-one] | 180 to 193 |
| CN(C)CCN(Cc1ccccc1)C1=NC(=O)/C(=C/c2cccc(-c3cc(F)c(O)c(C45CC6CC(CC(C6)C4)C5)c3)c2)S1 [Compound 20, 5-[3-(3-Adamantan-1-yl-4-hydroxy-5-fluoro-phenyl)benzylidene]-2[benzyl-(2-dimethylamino-ethyl)-amino]-thiazol-4-one] | 242 to 246 |
| N=C(N)NC1=NC(=O)/C(=C/c2cccc(-c3cc(F)c(O)c(C45CC6CC(CC(C6)C4)C5)c3)c2)S1 [Compound 70, 5-[3-(3-Adamantan-1-yl-4-hydroxy-5-fluorophenyl)benzylidene]-2-(N-guanidinyl)-thiazol-4-one] | 288 to 290 |

Second part, the molecule after the results:

| melting point [°C] | Structure (SMILES) |
| --- | --- |
| 325 to 328 | O=C1N=C(N2CCOCC2)S/C1=C\c1cccc(-c2ccc(O)c(C34CC5CC(CC(C5)C3)C4)c2)c1 [Compound 2, 5-[3-(3-Adamantan-1-yl-4-hydroxy-phenyl)benzylidene]-2-morpholin-4-yl-thiazol-4-one] |
| 238 to 240 | O=C1N=C(NO)S/C1=C\c1cccc(-c2cc(F)c(O)c(C34CC5CC(CC(C5)C3)C4)c2)c1 [Compound 52, 5-[3-(3-Adamantan-1-yl-4-hydroxy-5-fluorophenyl)benzylidene]-2-hydroxyamino-thiazol-4-one] |
| 312 to 315 | O=C1N=C(N2CCCC2)S/C1=C\c1ccc(-c2cc(F)c(O)c(C34CC5CC(CC(C5)C3)C4)c2)s1 [Compound 59, 5-[5-(3-Adamantan-1-yl-4-hydroxy-5-fluoro-phenyl)-thiophene-2-yl-methylene]-2-pyrrolidine-1-yl-thiazol-4-one] |
| 238 | O=C1N=C(N2CCOCC2)S/C1=C\c1ccc(OC(F)(F)F)c(-c2cc(F)c(O)c(C34CC5CC(CC(C5)C3)C4)c2)c1 [Compound 62, 5-[3-(3-Adamantan-1-yl-4-hydroxy-5-fluoro-phenyl)-4-trifluoromethoxy-benzylidene]-2-morpholin-4-yl-thiazol-4-one] |
| 164 to 168 | O=C1N=C(N2CCC[C@@H]2C(=O)O)S/C1=C\c1cccc(-c2cc(F)c(O)c(C34CC5CC(CC(C5)C3)C4)c2)c1 [Compound 76, 5-[3-(3-Adamantan-1-yl-4-hydroxy-5-fluoro-phenyl)benzylidene]-2-(2-(R)-carboxy-1-yl)-thiazol-4-one] |
| 226 to 228 | CN1CCN(C2=NC(=O)/C(=C/c3cccc(-c4cc(F)c(O)c(C56CC7CC(CC(C7)C5)C6)c4)c3)S2)CC1 [Compound 9, 5-[3-(3-Adamantan-1-yl-4-hydroxy-5-fluoro-phenyl)benzylidene]-2-(4-methyl-piperazin-1-yl)-thiazol-4-one] |
| 293 to 296 | O=C1N=C(NN2CCCC2)S/C1=C\c1cccc(-c2cc(F)c(O)c(C34CC5CC(CC(C5)C3)C4)c2)c1 [Compound 69, 5-[3-(3-Adamantan-1-yl-4-hydroxy-5-fluoro-phenyl)benzylidene]-2-(pyrrolidin-1-ylamino)-thiazol-4-one] |
| 303 to 308 | NNC1=NC(=O)/C(=C/c2cccc(-c3cc(F)c(O)c(C45CC6CC(CC(C6)C4)C5)c3)c2)S1 [Compound 74, 5-[3-(3-Adamantan-1-yl-4-hydroxy-5-fluorophenyl)benzylidene]-2-hydrazino-thiazol-4-one] |
| 270 to 271 | CSC1=NC(=O)/C(=C/c2cccc(-c3cc(F)c(O)c(C45CC6CC(CC(C6)C4)C5)c3)c2)S1 [Compound 51, 5-[3-(3-Adamantan-1-yl-4-hydroxy-5-fluorophenyl)benzylidene]-2-methylsulfanyl-thiazol-4-one] |
| 309 to 311 | O=C1N=C(N2CCCC2)S/C1=C\c1cccc(-c2cc(F)c(O)c(C34CC5CC(CC(C5)C3)C4)c2)c1 [Compound 13, 5-[3-(3-Adamantan-1-yl-4-hydroxy-5-fluoro-phenyl)benzylidene]-2-pyrrolidine-1-yl-thiazol-4-one-thiazol-4-one] |
| 284 to 286 | O=C1N=C(N2CCCCCCC2)S/C1=C\c1cccc(-c2ccc(O)c(C34CC5CC(CC(C5)C3)C4)c2)c1 [Compound 16, 5-[3-(3-Adamantan-1-yl-4-hydroxy-phenyl)benzylidene]-2-azocan-1-yl-thiazol-4-one] |
| 154 to 157 | O=C1N=C(N2CCC2)S/C1=C\c1cccc(-c2cc(F)c(O)c(C34CC5CC(CC(C5)C3)C4)c2)c1 [Compound 108] |
